In patent publication US10273272B2, “Antimicrobial peptides” (Amprologix Limited, priority 2014, dated 2019):
Like-named read-outs stand apart in the source and are kept apart here. No end group written: not given here.

Assays:
MRSA [1] = assay type: cell-based, Staphylococcus aureus
Experimental: (§1) A series of derivatives of the NI0138-51 (SEQ ID NO:12) truncation were carried out with a view to maintaining stability of the helix and/or increasing net positive charge of the peptides (Table 3). Minimum inhibitory concentrations (MICs) were determined for each derivative against a range of Gram positive and Gram negative organisms by a modified 2-fold microtitre broth dilution method (Wu and Hancock, J Biol Chem 1999; 274: 29-35) (Table 2). […] This could not have been predicted.

E. coli = assay type: cell-based; conditions: for Average MIC: average of triplicate experiments, Table 5
Experimental: as §1

[2] = system: Klebsiella (K. pneumoniae); assay type: cell-based
Experimental: as §1

N. lactamica = assay type: cell-based
Experimental: as §1

P. aeruginosa = assay type: cell-based
Experimental: as §1

S aureus 1195 = assay type: cell-based
Experimental: as §1

VISA = assay type: cell-based
Experimental: as §1

[3] = system: Gram positive and negative bacteria; experiment: Antimicrobial activity against drug-resistant pathogens, summary in words; assay type: cell-based; conditions: summary of Table 2
Experimental: as §1

S. Hominis = assay type: cell-based
Experimental: (§2) Experiments were conducted in which the full-length epidermicin peptide (51 amino acids, SEQ ID NO:10) was truncated to yield the derivatives shown in FIG. 1 (SEQ ID NOs:11 to 19). NI011-37 (SEQ ID NO:11) Is the region most similar to other peptides in the public domain, NI0138-51 (SEQ ID NO:12) is the region that is most unique with respect to other peptides in the public domain. All other truncations have been carried out by removing residues from the amino-terminal end of the peptide to each lysine residue (K). Lysine is important in antimicrobial peptides as it contributes to the net positive charge, which is thought to have a key role in the mode of action of ‘cationic’ peptides, like NI01 (SEQ ID NO:10).

S. aureus 1195 = assay type: cell-based
Experimental: as §2

S. saprophyticus = assay type: cell-based
Experimental: as §2

MRSA [4] = assay type: cell-based, Staphylococcus aureus; remark: listed apart in the source
Experimental: as §2

haemolysis = experiment: Haemolysis assay (in vitro toxicity testing); assay type: cell-based; conditions: summary of Table 6
Experimental: In addition, in vitro toxicity testing (haemolysis assays) indicates a lack of toxicity at levels well above MIC for some peptides, indicating potential for a wide therapeutic window (Table 6). […] Since increased net charge is known to be associated with higher levels of haemolysis, (Dhople and Nagaraj, Peptides 2005: 26: 217-225), this was not wholly unexpected.
Experiments were conducted to assess the percentage haemolysis against peptide concentration for peptides SEQ ID NOs: 4, 5, 6 and 7 against full length epidermicin (SEQ ID NO:10) and SEQ ID NO:12.

Row | Sequence | Average MIC (E. coli; E. coli 49) | MIC (E. coli; E. coli 50, Table 2) | Average MIC (E. coli; E. coli 50) | Average MIC (E. coli; E. coli 177) | MIC (E. coli; E. coli 178, Table 2) | Average MIC (E. coli; E. coli 178) | Average MIC (E. coli; E. coli 187) | Average MIC (E. coli; E. coli DH5a) | MIC (E. coli; E. coli DH5α, Table 2) | MIC (E. coli; E.coli 177, Table 2) | MIC [2] | MIC (N. lactamica) | MIC (P. aeruginosa) | Average MIC (S aureus 1195) | MIC (S aureus 1195) | MIC (VISA) | haemolytic activity / toxicity, in words (haemolysis) | further results
1 | SFEWIYKQIFKLWA [SEQ ID NO:1, SFEWIYKQIFKLWA] | >64 µg/mL | >64 µg/mL | >64 µg/mL | >64 µg/mL | >64 µg/mL | >64 µg/mL | >64 µg/mL | >64 µg/mL | >64 µg/mL | >64 µg/mL | >64 µg/mL | >64 µg/mL | >64 µg/mL | >64 µg/mL | >64 µg/mL | >64 µg/mL |  | MIC (MRSA [1]): >64 µg/mL; Average MIC [2]: >64 µg/mL; antimicrobial activity against Gram positive and negative bacteria, in words [3]: significantly reduced activity
2 | SFEWIYKQIKKLWA [SEQ ID NO:12, SFEWIYKQIKKLWA] | 9 µg/mL | 7 µg/mL | 7 µg/mL | 5 µg/mL | 5 µg/mL | 5 µg/mL | 5 µg/mL | 8 µg/mL | 8 µg/mL | 5 µg/mL |  | 10.6 µg/mL | 64 µg/mL | 4 µg/mL |  |  | higher levels of haemolytic activity | MIC (S. Hominis): 4 µg/mL; MIC (S. aureus 1195): 4 µg/mL; MIC (S. saprophyticus): 4 µg/mL; MIC (MRSA [4]): 12 µg/mL
3 | SFEWIYKQIKKLWAK [SEQ ID NO:6, SFEWIYKQIKKLWAK] |  | 4 µg/mL |  |  | 8 µg/mL |  |  |  | 6.7 µg/mL | 4 µg/mL | 10.7 µg/mL | 21.3 µg/mL | 32 µg/mL |  | 3.3 µg/mL | >64 µg/mL | higher levels of haemolytic activity | 
4 | SFEWIYKQIKKLWAKKK [SEQ ID NO:7, SFEWIYKQIKKLWAKKK] |  | 4.3 µg/mL |  |  | 3.3 µg/mL |  |  |  | 4 µg/mL | 3 µg/mL |  | 37.3 µg/mL | 8 µg/mL |  | 1.7 µg/mL |  | relatively low levels of haemolysis | 
5 | SFEWIYKQIWKLKRGLA [SEQ ID NO:3, SFEWIYKQIWKLKRGLA] | 19 µg/mL | 11 µg/mL | 11 µg/mL | 5 µg/mL | 21 µg/mL | 21 µg/mL | 11 µg/mL | 9 µg/mL | 9 µg/mL | 5 µg/mL | >64 µg/mL | >64 µg/mL | >64 µg/mL | 13 µg/mL | 13 µg/mL |  |  | activity against E coli strains tested, in words (E. coli; summary of Table 2): good activity; Average MIC [2]: >64 µg/mL; antimicrobial activity against Gram positive and negative bacteria, in words ([3]; listed as 3): significantly reduced activity; antimicrobial activity against Gram positive and negative bacteria, in words ([3]; listed as SEQ ID: No 3): very low levels of activity
6 | SFEWIYKQPKKLWA [SEQ ID NO:20, SFEWIYKQPKKLWA] |  | >64 µg/mL |  |  | >64 µg/mL |  |  |  | >64 µg/mL | >64 µg/mL | >64 µg/mL |  | >64 µg/mL |  | >64 µg/mL | >64 µg/mL |  | MIC (MRSA [1]): >64 µg/mL
7 | SFKWIYKQIKKLWA [SEQ ID NO:5, SFKWIYKQIKKLWA] |  | 1.3 µg/mL |  |  | 1.3 µg/mL |  |  |  | 2 µg/mL | 2 µg/mL |  | 4.7 µg/mL |  |  | 1.2 µg/mL |  | higher levels of haemolytic activity | 
8 | SFKWIYKQPKKLWA [SEQ ID NO:21, SFKWIYKQPKKLWA] |  | 64 µg/mL |  |  | 64 µg/mL |  |  |  | 26.7 µg/mL | 53.3 µg/mL | >64 µg/mL |  | >64 µg/mL |  | 42.7 µg/mL | >64 µg/mL |  | 
9 | SFKWIYKQPKKLWAKKK [SEQ ID NO:23, SFKWIYKQPKKLWAKKK] |  | 18.7 µg/mL |  |  | 26.7 µg/mL |  |  |  | 13.3 µg/mL | 16 µg/mL | >64 µg/mL |  | >64 µg/mL |  | 8 µg/mL | >64 µg/mL |  | 
10 | SFKWPYKQIKKLWA [SEQ ID NO:22, SFKWPYKQIKKLWA] |  |  |  |  | 32 µg/mL |  |  |  | 10.7 µg/mL | 13.3 µg/mL |  |  | 64 µg/mL |  | 16 µg/mL | >64 µg/mL |  | 
